ChEMBL document CHEMBL1201862, “PubChem BioAssay data set” (2004)
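Cultured in 96-well plates, cells were exposed to test compound for 48 hours across five concentrations. At the GI50, growth is halved.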 Calls of active or inactive are those of the source. Cut-off read from the data, not from the text of the source: active = GI50 up to about 1.1 µM and inactive = higher.

How the values were obtained:
Assay in all cases: NCI tumour cell line growth inhibition, 48 h
ACHN = tested on: ACHN
COLO 205 = tested on: COLO 205
HCT-116 = tested on: HCT-116
HL-60 = tested on: HL-60
HOP-92 = tested on: HOP-92
HT-29 = tested on: HT-29
IGROV-1 = tested on: IGROV-1
MOLT-4 = tested on: MOLT-4
Malme-3M = tested on: Malme-3M
NCI-H226 = tested on: NCI-H226
OVCAR-5 = tested on: OVCAR-5
RPMI-8226 = tested on: RPMI-8226
SF-295 = tested on: SF-295
SK-MEL-2 = tested on: SK-MEL-2
SR = tested on: SR
UACC-257 = tested on: UACC-257
UO-31 = tested on: UO-31
HCC 2998 = tested on: HCC 2998

Structure (SMILES) | GI50 (ACHN) | GI50 (COLO 205) | GI50 (HCT-116) | GI50 (HL-60) | GI50 (HOP-92) | GI50 (HT-29) | GI50 (IGROV-1) | GI50 (MOLT-4) | GI50 (Malme-3M) | GI50 (NCI-H226) | GI50 (OVCAR-5) | GI50 (RPMI-8226) | GI50 (SF-295) | GI50 (SK-MEL-2) | GI50 (SR) | GI50 (UACC-257) | GI50 (UO-31) | GI50 (HCC 2998)
OCC1CC2C=CCC(C2)C1 (stereo not drawn) | > 100 µM (inactive) | > 100 µM (inactive) | > 100 µM (inactive) | > 100 µM (inactive) | > 100 µM (inactive) | > 100 µM (inactive) | > 100 µM (inactive) | > 100 µM (inactive) | > 100 µM (inactive) | > 100 µM (inactive) | > 100 µM (inactive) | > 100 µM (inactive) | > 100 µM (inactive) | > 100 µM (inactive) | > 100 µM (inactive) | > 100 µM (inactive) | > 100 µM (inactive) | –
CCOC(=O)C1(Br)C(c2ccccc2)NC(=O)N(C2OC(COC(=O)c3ccccc3)C(OC(=O)c3ccccc3)C2OC(=O)c2ccccc2)C1(C)Br (stereo not drawn) | 30.8 µM (inactive) | 24.4 µM (inactive) | 18.2 µM (inactive) | 0.0565 µM (active) | 18.1 µM (inactive) | 18.2 µM (inactive) | 34.9 µM (inactive) | 18.2 µM (inactive) | 23.8 µM (inactive) | – | – | 9.31 µM (inactive) | 33.3 µM (inactive) | 31.5 µM (inactive) | – | 18.6 µM (inactive) | 25.9 µM (inactive) | 91 µM (inactive)
Cc1cc2c(cc1CO)N1Cc3cc(C)c(CO)cc3N(C2)C1 | – | > 100 µM (inactive) | > 100 µM (inactive) | > 100 µM (inactive) | – | > 100 µM (inactive) | > 100 µM (inactive) | > 100 µM (inactive) | – | > 100 µM (inactive) | – | > 100 µM (inactive) | > 100 µM (inactive) | – | – | – | – | > 100 µM (inactive)
O=C1c2cnccc2Cc2cccc3c2N1c1ccccc1S3 | 19 µM (inactive) | 27.4 µM (inactive) | 19 µM (inactive) | 21.1 µM (inactive) | 9.23 µM (inactive) | 23.9 µM (inactive) | 28 µM (inactive) | 28.3 µM (inactive) | 24.7 µM (inactive) | – | – | 20.6 µM (inactive) | 28.2 µM (inactive) | 16.8 µM (inactive) | 12.4 µM (inactive) | 23.3 µM (inactive) | – | 16.6 µM (inactive)
Nc1ccc(N)c2c1C(=O)c1c(N)ccc(N)c1C2=O | 27.5 µM (inactive) | 58.6 µM (inactive) | > 73.3 µM (inactive) | 45.6 µM (inactive) | 36.6 µM (inactive) | > 100 µM (inactive) | > 100 µM (inactive) | 25.9 µM (inactive) | > 100 µM (inactive) | 14.6 µM (inactive) | > 100 µM (inactive) | > 57.3 µM (inactive) | 70 µM (inactive) | > 84.7 µM (inactive) | – | > 87.1 µM (inactive) | 41.8 µM (inactive) | 39.6 µM (inactive)
N#CC12CCC(O)C(CC1)C2=O (stereo not drawn) | > 100 µM (inactive) | 87.9 µM (inactive) | 73.1 µM (inactive) | > 100 µM (inactive) | – | > 100 µM (inactive) | > 100 µM (inactive) | > 100 µM (inactive) | > 100 µM (inactive) | > 100 µM (inactive) | > 100 µM (inactive) | 26.9 µM (inactive) | > 100 µM (inactive) | > 100 µM (inactive) | 27.3 µM (inactive) | > 100 µM (inactive) | > 100 µM (inactive) | > 100 µM (inactive)
COc1cc2c(cc1OC)C(CC1=C(c3ccccc3)CN3CCc4cc(OC)c(OC)cc4C3C1)NCC2 (stereo not drawn) | 24.3 µM (inactive) | 15.2 µM (inactive) | – | 12.2 µM (inactive) | – | 10.4 µM (inactive) | 16.6 µM (inactive) | 9.91 µM (inactive) | 19.5 µM (inactive) | 18.9 µM (inactive) | 18.5 µM (inactive) | 9.84 µM (inactive) | 16.8 µM (inactive) | 20.5 µM (inactive) | – | 16.2 µM (inactive) | 11.1 µM (inactive) | 10.6 µM (inactive)
Cc1ccc(NC(=O)C(=O)C(C#N)c2nc(-c3ccc(-c4ccccc4)cc3)cs2)c(C)c1 (stereo not drawn) | > 100 µM (inactive) | > 100 µM (inactive) | > 100 µM (inactive) | – | – | – | > 100 µM (inactive) | > 100 µM (inactive) | > 100 µM (inactive) | > 100 µM (inactive) | > 100 µM (inactive) | > 100 µM (inactive) | > 100 µM (inactive) | > 100 µM (inactive) | > 100 µM (inactive) | 58.7 µM (inactive) | > 100 µM (inactive) | > 100 µM (inactive)
Fc1ccc(C2SCc3nc4ccccc4n32)cc1 (stereo not drawn) | 34.8 µM (inactive) | 57 µM (inactive) | 32.4 µM (inactive) | 22.3 µM (inactive) | 19.9 µM (inactive) | 47.9 µM (inactive) | 47.9 µM (inactive) | 32.1 µM (inactive) | 25.8 µM (inactive) | 37.4 µM (inactive) | 21.4 µM (inactive) | 26.4 µM (inactive) | 40.7 µM (inactive) | 39.6 µM (inactive) | 27 µM (inactive) | – | 23 µM (inactive) | –
COCN(C)c1nc(N(C)C)nc(N(C)C)n1 | > 100 µM (inactive) | > 100 µM (inactive) | > 100 µM (inactive) | > 100 µM (inactive) | > 100 µM (inactive) | > 100 µM (inactive) | > 100 µM (inactive) | > 100 µM (inactive) | > 100 µM (inactive) | – | > 100 µM (inactive) | > 100 µM (inactive) | > 100 µM (inactive) | > 100 µM (inactive) | > 100 µM (inactive) | > 100 µM (inactive) | > 100 µM (inactive) | > 100 µM (inactive)
N#CC1(c2nc3ccccc3o2)C(=O)C(=O)N(c2ccc(Cl)c(Cl)c2)C(=O)C1=O | > 100 µM (inactive) | > 100 µM (inactive) | – | 26 µM (inactive) | 12.2 µM (inactive) | > 100 µM (inactive) | – | 30.3 µM (inactive) | > 100 µM (inactive) | > 100 µM (inactive) | > 100 µM (inactive) | > 100 µM (inactive) | > 100 µM (inactive) | > 100 µM (inactive) | – | > 100 µM (inactive) | > 100 µM (inactive) | > 100 µM (inactive)
O=C(O)/C(Cl)=C(\Cl)C(=O)Nc1ccccc1 | > 100 µM (inactive) | > 100 µM (inactive) | > 100 µM (inactive) | – | > 100 µM (inactive) | > 100 µM (inactive) | > 100 µM (inactive) | > 100 µM (inactive) | > 100 µM (inactive) | > 100 µM (inactive) | > 100 µM (inactive) | > 100 µM (inactive) | > 100 µM (inactive) | > 100 µM (inactive) | > 100 µM (inactive) | > 100 µM (inactive) | > 100 µM (inactive) | > 100 µM (inactive)
CC(=O)OC1=C2CC[C@@H]3C(CC[C@@]4(C)C3CC[C@@H]4OC(C)=O)[C@@]2(C)CC(C#N)C1=O (stereo partly drawn) | 20.8 µM (inactive) | 20.8 µM (inactive) | 27.6 µM (inactive) | 16 µM (inactive) | 15.1 µM (inactive) | 26.5 µM (inactive) | 19.2 µM (inactive) | 23.4 µM (inactive) | 5.58 µM (inactive) | 34.7 µM (inactive) | 26.4 µM (inactive) | 12 µM (inactive) | 32.8 µM (inactive) | 4.32 µM (inactive) | – | 29.3 µM (inactive) | 7.69 µM (inactive) | 13.3 µM (inactive)
